US8703179B2, “Mucosal formulation” (Kimberly-Clark Worldwide, Inc., priority 2006, dated 2014)
≈ marks a conversion by molar mass, not a printed value. Like-named read-outs stand apart in the source and are kept apart here.

Key:
Format in all cases: cell-based
Candida albicans = assay: Growth inhibition (minimum inhibitory concentration, gross turbidity); conditions: read-out: Minimum Inhibitory Concentration C. albicans
Protocol: (§1) The ability of the phosphocholine derivatives of Examples 1-2 to inhibit growth of Candida albicans, Staphylococcus aureus, Lactobacillus acidophilus, and Gardnerella vaginale was tested. Each phosphocholine derivative (at concentrations ranging from 0 to 500 micrograms per milliliter) was dissolved into a broth media and 6 wt. % ethanol. Thereafter, 0.1 milliliter of each solution was inoculated in 1.0 milliliter of a growth media containing the microorganism of interest. The growth media was TSB media for Candida albicans and Staphylococcus aureus, MRS broth for Lactobacillus acidophilus, and NYC-3 broth enriched proteose peptone for Gardnerella vaginale. The concentration of the microorganism in the growth media was 10^4 colony forming units (“CFU”) per milliliter.
(§2) Thereafter, the gross turbidity of the media was monitored at 24, 48, and 72 hours time intervals. Gross turbidity is an indicative of growth inhibition and is determined using visual determination or a spectrophotometer. The concentration of the phosphocholine derivative at which no turbidity is detected is designated as the “minimum inhibitory concentration.” Phosphocholine derivatives having lower minimum inhibitory concentrations are generally considered to have better antimicrobial efficacy.

Gardnerella vaginale = assay: as above; conditions: read-out: Minimum Inhibitory Concentration G. vaginale
Protocol: as §1, §2

[1] = tested on: Lactobacillus acidophilus; assay: as above; conditions: read-out: Minimum Inhibitory Concentration L. acidophilus
Protocol: as §1, §2

Staphylococcus aureus = assay: as above; conditions: read-out: Minimum Inhibitory Concentration S. aureus
Protocol: as §1, §2

[2] = tested on: Candida albicans (C. albicans); assay: Time-dependent inhibition (organism count)
Source text: (§3) Hexadecyl phosphocholine (“BRB-1”) was studied for inhibition of Candida albicans (C. albicans), Staphylococcus aureus (S. aureus), and lactobacilli. The results are shown below in Tables 3-4. Tetradecyl phosphocholine (“BRB-3”) was also studied for inhibition of C. albicans aureus, and lactobaccili.

[3] = tested on: L. acidophilus (lactobacilli); assay: Time-dependent inhibition (organism count); conditions: for Organism Count / Percent Reduction: L. acidophilus
Source text: as §3

[4] = tested on: Staphylococcus aureus (S. aureus); assay: Time-dependent inhibition (organism count)
Source text: as §3

[5] = TSB media, 10^4 CFU/ml, turbidity at 24, 48, 72 hours
[6] = NYC-3 broth, 10^4 CFU/ml, turbidity at 24, 48, 72 hours
[7] = MRS broth, 10^4 CFU/ml, turbidity at 24, 48, 72 hours

## CCCCCCCCCCCCCCOP(=O)([O-])OCC[N+](C)(C)C
Candida albicans; [5]
  MIC: 62.5 µg/mL (≈ 165 µM)
Gardnerella vaginale; [6]
  MIC: 250 µg/mL (≈ 659 µM)
[1]; [7]
  MIC: 250 µg/mL (≈ 659 µM)
Staphylococcus aureus; [5]
  MIC: 250 µg/mL (≈ 659 µM)

## CCCCCCCCCCCCCCCCOP([O-])(=S)OCC[N+](C)(C)C (stereo not shown)
Candida albicans; 72 h
  MIC: 31.2 µg/mL (≈ 73.8 µM)
Gardnerella vaginale; 72 h
  MIC: 31.2 µg/mL (≈ 73.8 µM)
[1]; 72 h
  MIC: 31.2 µg/mL (≈ 73.8 µM)
Staphylococcus aureus; 72 h
  MIC: 31.2 µg/mL (≈ 73.8 µM)

## CCCCCCCCCCCCCCCCOCC(O)COP(=O)([O-])OCC[N+](C)(C)C (racemic)
Candida albicans; [5]
  MIC: 125 µg/mL (≈ 260 µM)
Gardnerella vaginale; [6]
  MIC: 250 µg/mL (≈ 519 µM)
[1]; [7]
  MIC: 250 µg/mL (≈ 519 µM)
Staphylococcus aureus; [5]
  MIC: 250 µg/mL (≈ 519 µM)

## CCCCCCCCCCCCCCCCOP(=O)([O-])OCC[N+](C)(C)C [BRB-1, hexadecyl phosphocholine]
Candida albicans; [5]
  MIC: 15.6 µg/mL (≈ 38.3 µM)
Gardnerella vaginale; [6]
  MIC: 31.2 µg/mL (≈ 76.7 µM)
[1]; [7]
  MIC: 125 µg/mL (≈ 307 µM)
Staphylococcus aureus; [5]
  MIC: 125 µg/mL (≈ 307 µM)
[2]; 10 μg/ml, 0 Hour
  Organism Count: 8.4 × 10^5 CFU/ml
[2]; 10 μg/ml, 1 Hour
  % Reduction: 68.0%
  Organism Count: 2.3 × 10^5 CFU/ml
[2]; 10 μg/ml, 2 Hours
  % Reduction: 99.7%
  Organism Count: 2.1 × 10^3 CFU/ml
[2]; 10 μg/ml, 4 Hours
  % Reduction: 99.99%
  Organism Count: 50 CFU/ml
[2]; 100 μg/ml, 0 Hour
  % Reduction: 27.5%
  Organism Count: 2.9 × 10^5 CFU/ml
[2]; 100 μg/ml, 1 Hour
  % Reduction: 70.0%
  Organism Count: 1.2 × 10^5 CFU/ml
[2]; 100 μg/ml, 2 Hours
  % Reduction: 99.8%
  Organism Count: 8.0 × 10^2 CFU/ml
[2]; 100 μg/ml, 4 Hours
  % Reduction: 99.9%
  Organism Count: 3.8 × 10^2 CFU/ml
[3]; 1 μg/ml, 0 Hour
  Organism Count: 7.0 × 10^4 CFU/ml
  Percent Reduction: 6.7%
[3]; 1 μg/ml, 1 Hour
  Organism Count: 8.6 × 10^4 CFU/ml
[3]; 1 μg/ml, 2 Hours
  Organism Count: 7.6 × 10^4 CFU/ml
[3]; 1 μg/ml, 4 Hours
  Organism Count: 6.7 × 10^4 CFU/ml
  Percent Reduction: 10.7%
[3]; 10 μg/ml, 0 Hour
  Organism Count: 1.8 × 10^5 CFU/ml
  Percent Reduction: 18.2%
[3]; 10 μg/ml, 1 Hour
  Organism Count: 20 CFU/ml
  Percent Reduction: 99.99%
[3]; 10 μg/ml, 6 Hours
  Percent Reduction: 99.99%
[3]; 100 μg/ml, 0 Hour
  Organism Count: 1.5 × 10^5 CFU/ml
  Percent Reduction: 31.8%
[3]; 100 μg/ml, 1 Hour
  Organism Count: 70 CFU/ml
  Percent Reduction: 99.97%
[3]; 100 μg/ml, 6 Hours
  Percent Reduction: 99.99%
[4]; 10 μg/ml, 0 Hour
  % Reduction: 18.5%
  Organism Count: 5.3 × 10^4 CFU/ml
[4]; 10 μg/ml, 1 Hour
  % Reduction: 98.9%
  Organism Count: 7.3 × 10^2 CFU/ml
[4]; 10 μg/ml, 2 Hours
  % Reduction: 99.91%
  Organism Count: 60 CFU/ml
[4]; 10 μg/ml, 4 Hours
  % Reduction: 99.98%
[4]; 100 μg/ml, 0 Hour
  % Reduction: 39.2%
  Organism Count: 4.8 × 10^4 CFU/ml
[4]; 100 μg/ml, 1 Hour
  % Reduction: 99.8%
  Organism Count: 1.4 × 10^2 CFU/ml
[4]; 100 μg/ml, 2 Hours
  % Reduction: 99.97%
  Organism Count: 20 CFU/ml
[4]; 100 μg/ml, 4 Hours
  % Reduction: 99.99%

## tetradecyl phosphocholine [BRB-3]
[2]; 10 μg/ml, 0 Hour
  % Reduction: 2.7%
  Organism Count: 7.1 × 10^4 CFU/ml
[2]; 10 μg/ml, 1 Hour
  % Reduction: 20.5%
  Organism Count: 5.8 × 10^4 CFU/ml
[2]; 10 μg/ml, 2 Hours
  % Reduction: 30.1%
  Organism Count: 5.1 × 10^4 CFU/ml
[2]; 10 μg/ml, 4 Hours
  % Reduction: 52.0%
  Organism Count: 3.5 × 10^4 CFU/ml
[2]; 100 μg/ml, 0 Hour
  % Reduction: 26.0%
  Organism Count: 7.4 × 10^4 CFU/ml
[2]; 100 μg/ml, 1 Hour
  % Reduction: 43.0%
  Organism Count: 5.7 × 10^4 CFU/ml
[2]; 100 μg/ml, 2 Hours
  % Reduction: 51.0%
  Organism Count: 4.9 × 10^4 CFU/ml
[2]; 100 μg/ml, 4 Hours
  % Reduction: 46.0%
  Organism Count: 5.4 × 10^4 CFU/ml
[3]; 10 μg/ml, 0 Hour
  Organism Count: 3.1 × 10^5 CFU/ml
  Percent Reduction: 16.2%
[3]; 10 μg/ml, 1 Hour
  Organism Count: 2.9 × 10^5 CFU/ml
  Percent Reduction: 21.6%
[3]; 10 μg/ml, 2 Hours
  Organism Count: 2.4 × 10^5 CFU/ml
  Percent Reduction: 35.1%
[3]; 10 μg/ml, 4 Hours
  Organism Count: 2.3 × 10^5 CFU/ml
  Percent Reduction: 37.8%
[3]; 100 μg/ml, 0 Hour
  Organism Count: 4.5 × 10^5 CFU/ml
  Percent Reduction: 88.5%
[3]; 100 μg/ml, 1 Hour
  Percent Reduction: 99.99%
[3]; Tables 4 and 5, ascribed to organism instability in the media and the protocol
  Inhibition of lactobacilli (in words): some inhibtion
[4]; 10 μg/ml, 0 Hour
  Organism Count: 1.4 × 10^5 CFU/ml
[4]; 10 μg/ml, 1 Hour
  % Reduction: 18.3%
  Organism Count: 9.8 × 10^4 CFU/ml
[4]; 10 μg/ml, 2 Hours
  % Reduction: 25.8%
  Organism Count: 8.9 × 10^4 CFU/ml
[4]; 10 μg/ml, 4 Hours
  % Reduction: 38.3%
  Organism Count: 7.4 × 10^4 CFU/ml
[4]; 100 μg/ml, 0 Hour
  % Reduction: 7.1%
  Organism Count: 1.3 × 10^5 CFU/ml
[4]; 100 μg/ml, 1 Hour
  % Reduction: 97.9%
  Organism Count: 2.9 × 10^3 CFU/ml
[4]; 100 μg/ml, 2 Hours
  % Reduction: 99.9%
  Organism Count: 1.1 × 10^2 CFU/ml
[4]; 100 μg/ml, 4 Hours
  % Reduction: 99.99%
